{"source": "patent US9895387B2", "about": "“Compositions for treating Helicobacter pylori infection” (OVER S.R.L., priority 2010, dated 2018)", "assay_type_in_all_cases": "cell-based, Helicobacter pylori", "key": {"[1]": {"system": "H. pylori strain G50 (CagA−)", "test": "Minimal bactericidal concentration (MBC), broth dilution with subculture on agar", "details": "substance alone"}, "[2]": {"system": "H. pylori strain 10K (CagA+)", "test": "Minimal bactericidal concentration (MBC), broth dilution with subculture on agar", "details": "substance alone"}, "[3]": {"system": "H. pylori strain 4 Kb (CagA+)", "test": "Minimal bactericidal concentration (MBC), broth dilution with subculture on agar", "details": "substance alone"}, "[4]": {"system": "H. pylori strain M/C-R2 (CagA+, resistant to met and clar)", "test": "Minimal bactericidal concentration (MBC), broth dilution with subculture on agar", "details": "substance alone"}, "[5]": {"system": "H. pylori strain M/C-R1 (CagA+, resistant to met and clar)", "test": "Minimal bactericidal concentration (MBC), broth dilution with subculture on agar", "details": "substance alone"}, "[6]": {"system": "H. pylori strain 328 (CagA+)", "test": "Minimal bactericidal concentration (MBC), broth dilution with subculture on agar", "details": "substance alone"}, "[7]": {"system": "H. pylori strain Di Simpli (CagA+)", "test": "Minimal bactericidal concentration (MBC), broth dilution with subculture on agar", "details": "substance alone"}, "[8]": {"system": "H. pylori strain G21 (CagA−)", "test": "Minimal bactericidal concentration (MBC), broth dilution with subculture on agar", "details": "substance alone"}, "[9]": {"system": "H. pylori strain CCUG 17874 (CagA+)", "test": "Minimal bactericidal concentration (MBC), broth dilution with subculture on agar"}, "[10]": {"system": "H. pylori strain 328 Km (isogenic mutant CagA−)", "details": "substance alone"}, "[11]": {"details": "Helicobacter pylori, read-out: MBC"}, "[12]": {"details": "Helicobacter pylori, CCUG17874, substance alone, read-out: MBC"}}, "note": "Like-named read-outs stand apart in the source and are kept apart here.", "data": [{"compound": "CC1(C)S[C@@H]2[C@H](NC(=O)[C@H](N)c3ccc(O)cc3)C(=O)N2[C@H]1C(=O)O", "note": "[amoxicillin]", "values": [{"measurement": "MBC", "setting": "[1]; [11]", "result": 0.04, "unit": "µg/mL"}, {"measurement": "MBC", "setting": "[2]; [11]", "result": 0.08, "unit": "µg/mL"}]}, {"compound": "CC[C@H]1OC(=O)[C@H](C)[C@@H](O[C@H]2C[C@@](C)(OC)[C@@H](O)[C@H](C)O2)[C@H](C)[C@@H](O[C@@H]2O[C@H](C)C[C@H](N(C)C)[C@H]2O)[C@](C)(OC)C[C@@H](C)C(=O)[C@H](C)[C@@H](O)[C@]1(C)O", "note": "[clarithromycin]", "values": [{"measurement": "MBC", "setting": "[3]; [11]", "result": 0.1, "unit": "µg/mL"}, {"measurement": "MBC", "setting": "[1]; [11]", "result": 0.2, "unit": "µg/mL"}, {"measurement": "MBC", "setting": "[4]; [11]", "result": 2500, "unit": "µg/mL"}, {"measurement": "MBC", "setting": "[5]; [11]", "result": 320, "unit": "µg/mL"}, {"measurement": "MBC", "setting": "[6]; [11]", "result": 0.2, "unit": "µg/mL"}, {"measurement": "MBC", "setting": "[7]; [11]", "result": 0.4, "unit": "µg/mL"}, {"measurement": "MBC", "setting": "[8]; [11]", "result": 0.2, "unit": "µg/mL"}, {"measurement": "MBC", "setting": "[9]; [12]", "result": 0.25, "unit": "µg/mL"}]}, {"compound": "C[C@H]1COc2c(N3CCN(C)CC3)c(F)cc3c(=O)c(C(=O)O)cn1c23", "note": "[levofloxacin]", "values": [{"measurement": "MBC", "setting": "[1]; [11]", "result": 0.16, "unit": "µg/mL"}, {"measurement": "MBC", "setting": "[2]; [11]", "result": 0.31, "unit": "µg/mL"}]}, {"compound": "Cc1ncc([N+](=O)[O-])n1CCO", "note": "[metronidazole]", "values": [{"measurement": "MBC", "setting": "[4]; [11]", "result": 320, "unit": "µg/mL"}, {"measurement": "MBC", "setting": "[5]; [11]", "result": 40, "unit": "µg/mL"}, {"measurement": "MBC", "setting": "[6]; [11]", "result": 16, "unit": "µg/mL"}, {"measurement": "MBC", "setting": "[7]; [11]", "result": 10, "unit": "µg/mL"}, {"measurement": "MBC", "setting": "[9]; [12]", "result": 3.1, "unit": "µg/mL"}]}, {"compound": "polyoxyethylene (20) sorbitan monooleate [polysorbate 80]", "values": [{"measurement": "MBC", "setting": "[3]", "result": 31, "unit": "µg/mL"}, {"measurement": "MBC", "setting": "[1]", "result": 4.0, "unit": "µg/mL"}, {"measurement": "MBC", "setting": "[1]; listed as polysorbate", "result": 4, "unit": "µg/mL"}, {"measurement": "MBC", "setting": "[4]", "result": 62, "unit": "µg/mL"}, {"measurement": "MBC", "setting": "[10]", "result": 62, "unit": "µg/mL"}, {"measurement": "MBC", "setting": "[5]", "result": 160, "unit": "µg/mL"}, {"measurement": "MBC", "setting": "[6]", "result": "31 to 62", "unit": "µg/mL"}, {"measurement": "MBC", "setting": "[6]; listed as polysorbate", "result": 62, "unit": "µg/mL"}, {"measurement": "MBC", "setting": "[7]", "result": 25, "unit": "µg/mL"}, {"measurement": "MBC", "setting": "[2]", "result": 6.2, "unit": "µg/mL"}, {"measurement": "MBC", "setting": "[8]", "result": 1.6, "unit": "µg/mL"}, {"measurement": "MBC", "setting": "[9]; substance alone", "result": 5.0, "unit": "µg/mL"}]}]}
